Test results: article PMC9229843, “Cancer-Related Somatic Mutations in Transmembrane Helices Alter Adenosine A1 Receptor Pharmacology” (Molecules, 2022)

Target: T1, wild type hA1AR (Homo sapiens, UniProt P30542)
T1 sequence (P30542 1-326): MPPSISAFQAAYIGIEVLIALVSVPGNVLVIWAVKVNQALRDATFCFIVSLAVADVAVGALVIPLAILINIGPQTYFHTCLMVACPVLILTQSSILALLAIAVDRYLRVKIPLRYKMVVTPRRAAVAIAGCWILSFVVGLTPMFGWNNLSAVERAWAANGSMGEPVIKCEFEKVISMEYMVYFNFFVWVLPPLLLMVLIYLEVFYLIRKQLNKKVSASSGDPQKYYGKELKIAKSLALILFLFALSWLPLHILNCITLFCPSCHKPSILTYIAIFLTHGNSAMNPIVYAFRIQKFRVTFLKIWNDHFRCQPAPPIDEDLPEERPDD
Experiment: [3H]DPCPX radioligand displacement assay, CHO membranes
Format: binding
Conditions: fraction of high-affinity state; two-site model
Procedure: Transient transfection of CHO cells with wild type or mutated hA1AR plasmid constructs was performed using a polyethylenimine (PEI) method. Cells were seeded in 10-cm culture dishes to achieve 50–60% confluency 24 h prior to transfection. On the day of transfection, cells were transfected with a PEI: DNA ratio of 3:1 and a plasmid DNA amount of 10 μg/dish. Moreover, 24 h post-transfection, the medium was refreshed, and 48 h after transfection, cells were collected and membranes were prepared as previously described. Membranes were aliquoted in 250 or 100 μL and stored at −80 °C. Membrane protein concentrations were determined using the BCA method.
The displacement assays were performed as described previously. […] After the addition of 25 µL per well of the Microscint scintillation cocktail (PerkinElmer, Groningen, The Netherlands), the filter-bound radioactivity was measured by scintillation spectrometry in a Microbeta2® 2450 microplate counter (PerkinElmer).
All experimental data were analyzed by GraphPad Prism 7.0 or 8.0 (GraphPad Software Inc., San Diego, CA, USA). Data from yeast liquid growth and [^35S]GTPγS binding assays were analyzed by non-linear regression using “log (agonist) vs. response (three parameters)” or “log (inhibitor) vs. response (three parameters)” to obtain potency (EC50), inhibitory potency (IC50), and efficacy (Emax or Imax) values. […]

## OC[C@H]1O[C@@H](n2cnc3c(NC4CCCC4)ncnc32)[C@H](O)[C@@H]1O [CPA, N^6-cyclopentyladenosine]
  Fraction (High): 0.15 ± 0.03
